From PubChem BioAssay AID330 (DTP/NCI, 2004)
“And” between values parts separate entries of the source, which are not always exact repeats. Identical values can stand only once. Inconclusive results and toxic doses are left out.

Test system: P388 leukemia ip, CD2F1 mice, survival T/C
Experiment: NCI In Vivo Anticancer Drug Screen. Data for tumor model P388 Leukemia (intraperitoneal) in CD2F1 (CDF1) mice
Conditions: endpoint: median survival time, higher = longer survival
In short: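 Mice carrying the transplanted tumor received test compound or vehicle. Survival was recorded in each group, and the value is the treated-group measurement divided by that of the vehicle-treated control group.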

[1] = dose: 50.0 mg/kg/injection, schedule: Q01DX009 (ip), vehicle: saline
[2] = dose: 100.0 mg/kg/injection, schedule: Q01DX009 (ip), vehicle: saline
[3] = dose: 200.0 mg/kg/injection, schedule: Q01DX009 (ip), vehicle: saline
[4] = dose: 50.0 mg/kg/injection, schedule: Q01DX009 (ip), vehicle: saline with Tween-80
[5] = dose: 100.0 mg/kg/injection, schedule: Q01DX009 (ip), vehicle: saline with Tween-80
[6] = dose: 100.0 mg/kg/injection, schedule: Q04DX003 (ip), vehicle: saline with Tween-80
[7] = dose: 200.0 mg/kg/injection, schedule: Q01DX009 (ip), vehicle: saline with Tween-80
[8] = dose: 200.0 mg/kg/injection, schedule: Q04DX003 (ip), vehicle: saline with Tween-80
[9] = dose: 50.0 mg/kg/injection, schedule: Q01DX009 (ip), vehicle: Klucel (hydroxypropylcellulose) (HPC)
[10] = dose: 100.0 mg/kg/injection, schedule: Q01DX009 (ip), vehicle: Klucel (hydroxypropylcellulose) (HPC)
[11] = dose: 200.0 mg/kg/injection, schedule: Q01DX009 (ip), vehicle: Klucel (hydroxypropylcellulose) (HPC)
[12] = dose: 400.0 mg/kg/injection, schedule: Q01DX009 (ip), vehicle: Klucel (hydroxypropylcellulose) (HPC)
[13] = dose: 50.0 mg/kg/injection, schedule: Q04DX003 (ip), vehicle: saline with Tween-80
[14] = dose: 60.0 mg/kg/injection, schedule: Q01DX005 (ip), vehicle: saline with Tween-80
[15] = dose: 120.0 mg/kg/injection, schedule: Q01DX005 (ip), vehicle: saline with Tween-80
[16] = dose: 240.0 mg/kg/injection, schedule: Q01DX005 (ip), vehicle: saline with Tween-80
[17] = dose: 50.0 mg/kg/injection, schedule: Q01DX005 (ip), vehicle: saline with Tween-80
[18] = dose: 100.0 mg/kg/injection, schedule: Q01DX005 (ip), vehicle: saline with Tween-80
[19] = dose: 200.0 mg/kg/injection, schedule: Q01DX005 (ip), vehicle: saline with Tween-80
[20] = dose: 50.0 mg/kg/injection, schedule: Q01DX005 (ip), vehicle: Klucel (hydroxypropylcellulose) (HPC)
[21] = dose: 100.0 mg/kg/injection, schedule: Q01DX005 (ip), vehicle: Klucel (hydroxypropylcellulose) (HPC)

O=C(O)CS(=O)(=O)CCS(=O)(=O)CC(=O)O
T/C [1]: 107 % of control
T/C [2]: 105 % of control
T/C [3]: 88 % of control

CCN(CC)S(=O)(=O)c1ccc(OC)c(N)c1
T/C [4]: 90 % of control
T/C [5]: 95 % of control
T/C [6]: 90 % of control
T/C [7]: 90 % of control
T/C [8]: 90 % of control

CC1SC(C)(C)N(C=O)C1C(=O)O (stereo not drawn)
T/C [4]: 99 % of control and 100 % of control
T/C [5]: 101 % of control and 91 % of control
T/C [7]: 106 % of control and 94 % of control

CC1(C)CC(OP(=[Se])(OC2CC(C)(C)N(O)C(C)(C)C2)c2ccccc2)CC(C)(C)N1O
T/C (dose: 12.5 mg/kg/injection, schedule: Q01DX001 (ip), vehicle: Klucel (hydroxypropylcellulose) (HPC)): 102 % of control
T/C (dose: 25.0 mg/kg/injection, schedule: Q01DX001 (ip), vehicle: Klucel (hydroxypropylcellulose) (HPC)): 102 % of control
T/C (dose: 50.0 mg/kg/injection, schedule: Q01DX001 (ip), vehicle: Klucel (hydroxypropylcellulose) (HPC)): 105 % of control

C[C@]12CCC(=O)C=C1CC[C@@H]1[C@@H]2[C@@H](O)C[C@@]2(C)[C@H]1CC[C@]2(O)C(=O)COC(=O)c1ccc([N+](=O)[O-])cc1Cl
T/C [4]: 109 % of control
T/C [5]: 100 % of control
T/C [7]: 109 % of control and 86 % of control
T/C (dose: 400.0 mg/kg/injection, schedule: Q01DX009 (ip), vehicle: saline with Tween-80): 86 % of control

CCCCCCCCCCCC(=O)Nc1ncnc2nc[nH]c12
T/C [9]: 93 % of control
T/C [10]: 95 % of control
T/C [11]: 98 % of control
T/C [12]: 104 % of control

CCC(O)(c1ccccc1)C(O)c1ccccc1 (stereo not drawn)
T/C (dose: 25.0 mg/kg/injection, schedule: Q01DX009 (ip), vehicle: Klucel (hydroxypropylcellulose) (HPC)): 98 % of control
T/C [9]: 98 % of control
T/C (dose: 50.0 mg/kg/injection, schedule: Q01DX009 (ip), vehicle: saline + alcohol): 102 % of control and 124 % of control
T/C [10]: 97 % of control
T/C (dose: 100.0 mg/kg/injection, schedule: Q01DX009 (ip), vehicle: saline + alcohol): 99 % of control and 123 % of control
T/C [11]: 88 % of control
T/C (dose: 200.0 mg/kg/injection, schedule: Q01DX009 (ip), vehicle: saline + alcohol): 98 % of control
T/C [12]: 96 % of control

C=CCOCC1CO1 (stereo not drawn)
T/C (dose: 12.5 mg/kg/injection, schedule: Q01DX009 (ip), vehicle: saline): 106 % of control
T/C (dose: 25.0 mg/kg/injection, schedule: Q01DX009 (ip), vehicle: saline): 97 % of control
T/C [1]: 103 % of control
T/C [13]: 100 % of control
T/C [2]: 100 % of control
T/C [6]: 90 % of control
T/C (dose: 132.0 mg/kg/injection, schedule: Q04DX003 (ip), vehicle: saline with Tween-80): 109 % of control
T/C [3]: 100 % of control
T/C [8]: 109 % of control
T/C (dose: 300.0 mg/kg/injection, schedule: Q04DX003 (ip), vehicle: saline with Tween-80): 122 % of control

Cn1c2ccccc2c(=O)c2cc(NC(=O)CCCCC(=O)Nc3ccc4c(c3)c(=O)c3ccccc3n4C)ccc21
T/C [14]: 101 % of control
T/C [15]: 107 % of control
T/C [16]: 101 % of control

CC1(C)CCCC12CCN1CCC([N+](=O)[O-])C12 (stereo not drawn)
T/C (dose: 11.5 mg/kg/injection, schedule: Q04DX003 (ip), vehicle: saline with Tween-80): 100 % of control
T/C (dose: 23.0 mg/kg/injection, schedule: Q04DX003 (ip), vehicle: saline with Tween-80): 108 % of control
T/C (dose: 46.0 mg/kg/injection, schedule: Q04DX003 (ip), vehicle: saline with Tween-80): 100 % of control
T/C (dose: 92.0 mg/kg/injection, schedule: Q04DX003 (ip), vehicle: saline with Tween-80): 108 % of control

CC(=O)N1CCN(C(C)=O)N(C(C)=O)CCN1C(C)=O
T/C (dose: 100.0 mg/kg/injection, schedule: Q04DX003 (ip), vehicle: suspension in saline): 94 % of control
T/C (dose: 200.0 mg/kg/injection, schedule: Q04DX003 (ip), vehicle: suspension in saline): 97 % of control
T/C (dose: 400.0 mg/kg/injection, schedule: Q04DX003 (ip), vehicle: suspension in saline): 94 % of control

COc1ccc(/C=N/NC(=O)COCC(=O)N/N=C/c2ccc(OC)cc2)cc1
T/C [17]: 100 % of control
T/C [18]: 88 % of control
T/C [19]: 91 % of control

CC[CH2][Pb]([CH2]CC)([CH2]CC)[O]C(=O)C1CCCCC1
T/C (dose: 1.25 mg/kg/injection, schedule: Q01DX009 (ip), vehicle: saline with Tween-80): 105 % of control and 97 % of control
T/C (dose: 2.5 mg/kg/injection, schedule: Q01DX009 (ip), vehicle: saline with Tween-80): 111 % of control and 122 % of control
T/C (dose: 5.0 mg/kg/injection, schedule: Q01DX009 (ip), vehicle: saline with Tween-80): 122 % of control
T/C (dose: 10.0 mg/kg/injection, schedule: Q01DX009 (ip), vehicle: saline with Tween-80): 114 % of control

Cc1ccsc1C(=O)c1ccccc1
T/C [20]: 99 % of control
T/C [21]: 94 % of control
T/C (dose: 200.0 mg/kg/injection, schedule: Q01DX005 (ip), vehicle: Klucel (hydroxypropylcellulose) (HPC)): 96 % of control

CC1(C)OC2CC3CC(O)CC3C2O1 (stereo not drawn)
T/C [14]: 98 % of control
T/C [15]: 102 % of control
T/C [16]: 102 % of control

CNC(=O)OCc1c(-c2ccccc2)c(-c2ccccc2)n(C)c1COC(=O)NC
T/C (dose: 1.56 mg/kg/injection, schedule: Q01DX009 (ip), vehicle: distilled water + Tween-80): 102 % of control
T/C (dose: 12.5 mg/kg/injection, schedule: Q01DX009 (ip), vehicle: distilled water + Tween-80): 154 % of control and 164 % of control
T/C (dose: 25.0 mg/kg/injection, schedule: Q01DX009 (ip), vehicle: distilled water + Tween-80): 160 % of control and 174 % of control
T/C (dose: 50.0 mg/kg/injection, schedule: Q01DX009 (ip), vehicle: distilled water + Tween-80): 165 % of control and 171 % of control

O=C(CC(NC(=O)OCc1ccccc1)C(=O)O)OCc1ccccc1 (stereo not drawn)
T/C (dose: 100.0 mg/kg/injection, schedule: Q04DX003 (ip), vehicle: saline sonified): 110 % of control
T/C (dose: 200.0 mg/kg/injection, schedule: Q04DX003 (ip), vehicle: saline sonified): 105 % of control

COc1cc(/C=N\NC(=O)OC(C)(C)C)cc(OC)c1OC
T/C [13]: 100 % of control
T/C [6]: 91 % of control
T/C [8]: 91 % of control

c1ccc(C2c3ccccc3Nc3ccccc32)cc1
T/C (dose: 6.25 mg/kg/injection, schedule: Q04DX002 (ip), vehicle: saline with Tween-80): 104 % of control
T/C (dose: 12.5 mg/kg/injection, schedule: Q04DX002 (ip), vehicle: saline with Tween-80): 97 % of control
T/C (dose: 25.0 mg/kg/injection, schedule: Q04DX002 (ip), vehicle: saline with Tween-80): 97 % of control

C=CCOc1cc2c(cc1C/C=C\c1ccc(OC)cc1)OCO2
T/C [14]: 102 % of control
T/C [15]: 104 % of control
T/C [16]: 101 % of control

Nc1ccc2c(c1)CC1CC(=O)NN=C21 (stereo not drawn)
T/C (dose: 60.0 mg/kg/injection, schedule: Q01DX005 (ip), vehicle: saline): 98 % of control
T/C (dose: 120.0 mg/kg/injection, schedule: Q01DX005 (ip), vehicle: saline): 92 % of control
T/C (dose: 240.0 mg/kg/injection, schedule: Q01DX005 (ip), vehicle: saline): 98 % of control

O=S(=O)(c1ccc(F)cc1)C1C(c2ccccc2)=NNC1c1ccccc1Cl (stereo not drawn)
T/C [17]: 95 % of control
T/C [18]: 95 % of control
T/C [19]: 106 % of control

CCCCCCC(=O)/C=C/c1cccc(OC)c1OC
T/C [4]: 99 % of control
T/C [5]: 107 % of control
T/C [7]: 105 % of control

O=C(NC(Cc1cccc(F)c1)C(=O)O)c1ccccc1 (stereo not drawn)
T/C (dose: 6.25 mg/kg/injection, schedule: Q01DX009 (ip), vehicle: other): 95 % of control
T/C (dose: 12.5 mg/kg/injection, schedule: Q01DX009 (ip), vehicle: other): 96 % of control

O=C1c2ccccc2C(=O)N1CC#CC[N+]1([O-])CCc2ccccc2C1 (stereo not drawn)
T/C (dose: 12.5 mg/kg/injection, schedule: Q01DX005 (ip), vehicle: Klucel (hydroxypropylcellulose) (HPC)): 103 % of control
T/C (dose: 25.0 mg/kg/injection, schedule: Q01DX005 (ip), vehicle: Klucel (hydroxypropylcellulose) (HPC)): 102 % of control
T/C [20]: 103 % of control
T/C [21]: 110 % of control
